Measurements taken from patent US12508245B2, “Co-therapies including a metastasis inhibitor” (priority 2017, dated 2025).

Legend:
[1] = Pharmacokinetic study of Compound A in mice: stability of the plasma samples (LC-MS/MS); format: in vitro ADME; details: mouse plasma samples, K2 EDTA
Experimental: Concentrations of Compound A in plasma were determined using high performance liquid chromatography with tandem mass spectrometry (LC MS/MS). All blood samples were transferred into commercial tube containing Potassium (K2) EDTA and processed for plasma. Samples were centrifuged (3000×g for 10 minutes at 2 to 8° C.) within one hour of collection. The assays used a Sciex API 4000 detector and nifedipine as an internal standard. The calibration ranges for Compound A for were 5.00 to 5000 ng/mL. The plasma concentration of Compound A in mice was subjected to a non-compartmental pharmacokinetic analysis by using the Phoenix WinNonlin software (version 6.3, Pharsight, Mountain View, CA). The nominal dose levels and nominal sampling times were used in the calculation of all pharmacokinetic parameters. The linear/log trapezoidal rule was applied in obtaining the PK parameters.

[2] = system: MDA-MB-231 tumor cells; assay: Overall survival of NSG mice implanted with MDA-MB-231 tumor cells, combination treatment with chemotherapy; format: in vivo, human
Experimental: Vehicle solvent was given to control mice once a day for 6 days every week. Starting on day 15, doxorubicin hydrochloride (Sigma) (2 mg/kg) and cyclophosphamide monohydrate (Sigma) (60 mg/kg) were given to mice once a week for four weeks. Primary tumors were removed on day 29. Death of mice was used as the endpoint.

[3] = system: 4T1 breast tumor cells; assay: Combination treatment with Compound A and immunotherapy, 4T1 tumor-bearing BALB/c mice, overall survival; format: in vivo, mouse
Experimental: Female BALB/c mice (6- to 8-week-old) were purchased from Charles River Laboratories. […] Mol Oncol 10, 966-980 (2016). Starting on day 8 or 22, Compound A was given to mice once every day for 5 days a week by oral gavage at 100 mg/kg per mouse. Tumor-bearing mice were given 10 mg/kg anti-PD-1 and 10 mg/kg anti-CTLA-4 antibodies i.p. on day 11, 13, 15, and 17 as previously described. Kim, K. et al. Eradication of metastatic mouse cancers resistant to immune checkpoint blockade by suppression of myeloid-derived cells. Proc Natl Acad Sci USA 111, 11774-11779 (2014). Control group mice were given control mouse IgG at the same time. Primary tumor volume was calculated as length×width^2×π/6.

[4] = system: 4T1 mouse breast tumor cells
Experimental: Female BALB/c mice (6-8 week old) were purchased from Charles River. 4T1 tumor cells (1×10^5) were injected subcutaneously into the abdominal mammary gland area of mice using 0.1 ml of a single-cell suspension in PBS on Day 0 as previously described. […] Starting on Day 8, when the tumors averaged about ˜4-5 mm in diameter, Compound A or control solvent were given once or twice every day by oral gavage at 10, 30, 100 or 300 mg/kg per mouse until Day 27. On Day 28, the mice were sacrificed. […] Numbers of metastatic 4T1 cells in lungs were determined by the clonogenic assay. In brief, lungs were removed from each mouse, finely minced and digested in 5 ml of enzyme cocktail containing 1×PBS and 1 mg/ml collagenase type IV for 2 hours at 37° C. on a platform rocker. After incubation, samples were filtered through 70-μm nylon cell strainers and washed twice with PBS. Resulting cells were suspended, plated with a series of dilutions in 10 cm tissue culture dishes in DMEM medium containing 60 μM thioguanine for clonogenic growth. As 4T1 tumor cells are resistant to 6-thioguanine, metastasized tumor cells formed foci after 14 days, at which time they were fixed with 4% paraformaldehyde and stained with crystal violet staining solution for counting. […]

[5] = system: MDA-MB-231 human breast tumor cells
Experimental: MDA-MB-231 cells (subclone LM2) (1×10^5) suspended in PBS were injected subcutaneously into the abdominal mammary gland area of mice on day 1 as previously described. […] On the first day of the ninth week, the mice were killed. […] Numbers of metastatic MDA-MB-231 cells in lungs were determined by the clonogenic assay. In brief, lungs were removed from each mouse once sacrificed, finely minced and digested in 5 ml of enzyme cocktail containing 1×PBS and 1 mg/ml collagenase type IV for 2 h at 37° C. on a platform rocker. After incubation, samples were filtered through 70-μm nylon cell strainers and washed twice with PBS. Resulting cells were suspended, plated with a series of dilutions in 10 cm tissue culture dishes in medium containing 2.0 μg/ml puromycin for clonogenic growth. As these MBA-MB-231 tumor cells were stably transfected with the vector pSuper-puro, metastasized tumor cells formed foci after 14 days, at which time they were fixed with 4% paraformaldehyde and stained with crystal violet staining solution for counting.

SMILES: Cc1occc1C(=O)Nc1nn(Cc2ccc(C(F)(F)F)cc2)c2ccccc12 [NP-G2-044]
- stability after freeze-thaw, and during storage, processing and analysis [1]: stable
- overall survival of tumor-bearing mice ([2]; NSG mice, MDA-MB-231, primary tumors removed on Day 29, NP-G2-044 started on Day 1, chemotherapy for 4 weeks, death as endpoint (FIG. 2b)): increases overall survival
- overall survival in the combination therapies, earlier versus late start of NP-G2-044 ([2]; with chemotherapy, NP-G2-044 starting on day 1 or 8 compared with day 15 (FIG. 2d)): had better effect than late treatment
- overall survival of tumor-bearing mice ([3]; 4T1 tumor-bearing mice, anti-PD-1 and anti-CTLA-4 antibodies, death as endpoint (FIG. 3c)): increased the overall survival
- immunotherapy response (overall survival) in combination therapy, early treatment ([3]; NP-G2-044 starting on day 8, with anti-PD-1 and anti-CTLA-4 antibodies (FIG. 3e)): boosted the immunotherapy response
- immunotherapy response (overall survival) in combination therapy, late treatment ([3]; NP-G2-044 starting on day 22, with anti-PD-1 and anti-CTLA-4 antibodies (FIG. 3e)): boosted the immunotherapy response
- metastasis to the lung, single agent ([4]; 4T1 cells implanted into the mammary fat pad (FIG. 1f-g)): blocks tumor metastasis
- tolerability of the dosage regimen ([4]; mouse, in vivo): well tolerated with no signs of overt toxicity
- metastasis to the lung, single agent ([5]; MDA-MB-231 cells implanted into the mammary fat pad, QD or BID (FIG. 1c-e)): blocks tumor metastasis
- tolerability of the dosage regimen ([5]; in vivo): well tolerated with no signs of overt toxicity
